From US20040018579A1, “Dye-labelled peptide and method” (priority 2000, published 2004)
No end group written: not given here. Cy5Q = cyanine dye quencher coupled to the N-terminus (from Cy5Q-NHS)

Test system: AspN
Assay: Endoproteinase AspN cleavage assay
Type: biochemical
Conditions: 2 μM, 500 μl, AspN 100 ng, overnight at ambient temperature, excitation 520 nm, emission 540-750 nm
Experimental: The fluorescence intensity of compound A (2 μM, 500 μl volume) in a quartz cuvette was recorded using a spectrofluorimeter. The sample was excited at 520 nm and emission over 540-750 nm recorded. AspN (100 ng, 50 μl volume) was added to the sample in the cuvette, which was stoppered, and kept dark at ambient temperature overnight. The fluorescence intensity was again recorded. […] Tween™ is a trademark of ICI Americas, Inc.

- Cy3 fluorescence on AspN-catalysed hydrolysis: increase in Cy3 fluorescence
Substance: Cy5Q -Asp-Glu-Val-Asp-Arg-Ser-Gly-Ser-Gly-Ser-Cy3-Ala-Leu-Thr-OH (Cy5Q-DEVDRSGSGS; not fully specified (C-terminus)) [Compound A]
